Laboratory results reported in ChEMBL document CHEMBL1155614, “CR377, a new pentaketide antifungal agent isolated from an endophytic fungus” (2000).
Active and inactive are the calls of the source. The calls are words filed in the database; no cut-off is given here.

Experiments:
Saccharomyces cerevisiae = test: Antimicrobial activity against Saccharomyces cerevisiae at 30 ug by agar diffusion method; type: functional, organism-based
Candida albicans [1] = test: Antimicrobial activity against Candida albicans 109 at 30 ug by agar diffusion method; type: functional
Candida albicans [2] = test: Antimicrobial activity against Candida albicans wisconsin at 30 ug by agar diffusion method; type: functional

| Compound | inhibition zone (IZ) (Saccharomyces cerevisiae) [mm] | inhibition zone (IZ) (Candida albicans [1]) [mm] | inhibition zone (IZ) (Candida albicans [2]) [mm] | Activity (Saccharomyces cerevisiae) | zone of inhibition at 30 µg/disc (Candida albicans [1]; read-out: IZ) [mm] | zone of inhibition at 30 µg/disc (Candida albicans [2]; read-out: IZ) [mm] |
| --- | --- | --- | --- | --- | --- | --- |
| NYSTATIN | 21 | 22 | 19 |  |  |  |
| C=C1C(O)=C(C(=O)C(C)CC)C(=O)OC1C (stereo unspecified) |  |  |  | inactive | 24 | 20 |
